These results are taken from publication PMC11845477, “Exploring the principles behind antibiotics with limited resistance” (Nature Communications, 2025).

Assay [1] concerns Escherichia coli, Klebsiella pneumoniae, Acinetobacter baumannii, and Pseudomonas aeruginosa. The conditions noted are these: all species; cited from earlier work.
Assay [2] concerns A. baumannii ATCC 17978 (SEN) and A. baumannii ATCC BAA-1605 (MDR). The conditions noted are these: after 60 days of evolution; cited from earlier work. The source says: (§1) Using the same set of bacterial strains, we initiated adaptive laboratory evolution with the aim to maximize the level of antibiotic resistance in the populations achieved during a longer, but fixed time period. As expected, resistance levels were generally much higher than those observed in FoR assay. […] For instance, after 60 days of evolution, resistance levels increased by a maximum of fourfold in A. baumannii and in the E. coli sensitive strain e ...

The subject of assay [3] is E. coli ATCC 25922 (SEN) and E. coli NCTC13846 (MDR). The conditions noted are these: E. coli sensitive strain, after 60 days of evolution; cited from earlier work.
Source text: as §1

The subject of assay [4] is T1, Pseudomonas aeruginosa ATCC BAA 3107.
T1 construct: ATCC BAA-3107
Briefly: microbe, parasite or virus in culture. The conditions noted are these: Pseudomonas aeruginosa, BAA3107, 18 h; read-out: MIC of ancestor. Set-up: CLSI broth microdilution MIC; OD600 < 0.05 counted as complete growth inhibition. How it is done: A final concentration of 5 × 10^5 bacterial cells per mL were inoculated into each well containing 60 µL MHB medium. Bacterial cultures were incubated at 37 °C with continuous shaking (Infors shaker, 900 rpm with 3 mm throw) for 18 hours (2 replicates from each). Cell growth was monitored by measuring the optical density (OD600 values, using Biotek Synergy microplate reader). MIC was defined as the antibiotic concentration of complete growth inhibition (i.e., OD600 < 0.05). Relative MIC was calculated as follows:1 relativeMIC=MICevolved/MICancestor This study focused on multiple bacterial strains, as follows. For the FoR and ALE experiments, 2 strains per species were chosen: E. coli ATCC 25922, K. pneumoniae ATCC 10031, A. baumannii ATCC 17978, and P. aeruginosa ATCC BAA-3107 as sensitive (SEN) strains, and E. coli NCTC13846, K. pneumoniae ATCC 700603, A. baumannii ATCC BAA-1605 and P. aeruginosa LESB58 as multi-drug resistant (MDR) strains. Functional metagenomic screens were performed with E. coli ATCC 25922 and K. pneumoniae ATCC 10031 strains. To determine the dose-kill properties of the different antibiotics, an E. coli strain (ATCC 25922) expressing a yellow fluorescent protein (pZS2R, YFP, CHL^R) and a red fluorescent protein (pZS2R, mCherry, CHL^R) was used.

With `CC(C)c1ccc(Cn2ccc3c4c(N)nc(NC5CC5)nc4ccc32)cc1` [SCH79797], the “average increment in resistance level (relative MIC) after FoR assay” value in assay [1] is recorded as “less than fourfold”. Moreover, the “increase in resistance level after adaptive laboratory evolution” value in assay [2] and in assay [3] was “fourfold” in each case.

Regarding `Nc1nc(-n2cc(C(=O)O)c(=O)c3cc(F)c(N4CC(O)C4)c(Cl)c32)c(F)cc1F` [Delafloxacin], the MIC in assay [4] was 0.0156 µg/mL.
